US9833497B2, “Human originated EGF domain proteins and use of the same” (CHENGDU SOURCEBIO LIMITED-LIABILITY COMPANY, priority 2013, dated 2017)

How the values were obtained:
Type in all cases: cell-based
E. coli DH5α = assay: Antibacterial activity: MIC and growth curve against E. coli DH5α in 96-well plate; details: minimal inhibitory concentration against E. coli DH5α; 96-well plate, 5×10^5 CFU/mL, 37° C., judged after 8 h
Summary of the method: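 Log-phase DH5α (OD600 about 0.5, 37° C, 185 rpm in LB) was pelleted, resuspended in fresh LB and seeded at 5×10^5 CFU/mL with recombinant protein at 50, 25 and 12.5 μg/mL (two-fold series), in triplicate. Plates were shaken at 175 rpm, 37° C, and OD600 was read every 30 min. MIC was the lowest concentration with no growth.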

E. coli BL21 = assay: MIC against Gram-negative bacteria: E. coli BL21; details: 5×10^5 CFU/mL; for MIC E. coli BL21: two-fold serial dilution
Summary of the method: (§1)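 Purified recombinant human EGF domain proteins are tested by broth dilution in LB against a 5×10^5 CFU/mL inoculum, with two-fold serial dilutions run in triplicate. Plates are incubated at 37° C with shaking, and the MIC is read as the lowest protein concentration without growth.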

Pseudomonas aeruginosa = assay: MIC against Gram-negative bacteria: Pseudomonas aeruginosa; details: 5×10^5 CFU/mL; for MIC P. aeruginosa: two-fold serial dilution
Summary of the method: as §1

Klebsiella pneumonia = assay: MIC against Gram-negative bacteria: Klebsiella pneumonia; details: 5×10^5 CFU/mL; for MIC K. pneumonia: two-fold serial dilution
Summary of the method: as §1

Enterobacter cloacae = assay: MIC against Gram-negative bacteria: Enterobacter cloacae; details: 5×10^5 CFU/mL; for MIC E. cloacae: two-fold serial dilution
Summary of the method: as §1

Aeromonas hydrophila = assay: MIC against Gram-negative bacteria: Aeromonas hydrophila; details: 5×10^5 CFU/mL; for MIC A. hydrophila: two-fold serial dilution
Summary of the method: as §1

Citrobacter diversus = assay: MIC against Gram-negative bacteria: Citrobacter diversus; details: 5×10^5 CFU/mL; for MIC C. diversus: two-fold serial dilution
Summary of the method: as §1

Moraxella catarrhalis = assay: MIC against Gram-negative bacteria: Moraxella catarrhalis; details: 5×10^5 CFU/mL; for MIC M. catarrhalis: two-fold serial dilution
Summary of the method: as §1

Proteus mirabilis = assay: MIC against Gram-negative bacteria: Proteus mirabilis; details: 5×10^5 CFU/mL; for MIC P. mirabilis: two-fold serial dilution
Summary of the method: as §1

Proteus vulgaris = assay: MIC against Gram-negative bacteria: Proteus vulgaris; details: 5×10^5 CFU/mL; for MIC P. vulgaris: two-fold serial dilution
Summary of the method: as §1

Serratia marcescens = assay: MIC against Gram-negative bacteria: Serratia marcescens; details: 5×10^5 CFU/mL; for MIC S. marcescens: two-fold serial dilution
Summary of the method: as §1

[1] = P. aeruginosa, 10 h cultivation at 37° C.
[2] = K. pneumonia, 10 h cultivation at 37° C.
[3] = E. cloacae, 10 h cultivation at 37° C.
[4] = A. hydrophila, 10 h cultivation at 37° C.
[5] = C. diversus, 10 h cultivation at 37° C.
[6] = M. catarrhalis, 10 h cultivation at 37° C.
[7] = P. mirabilis, 10 h cultivation at 37° C.
[8] = P. vulgaris, 10 h cultivation at 37° C.
[9] = S. marcescens, 10 h cultivation at 37° C.

PRT1082 (GTNPCSVNNGDCSQLCLPTSETTRSCMCTAGYSLRSGQQACE; listed as Homo sapiens)
MIC (E. coli DH5α): 50 µg/mL | MIC E. coli BL21 (E. coli BL21; 10 h cultivation at 37° C.): 12.5 µg/mL | MIC P. aeruginosa (Pseudomonas aeruginosa; 10 h cultivation at 37° C.): 25 µg/mL | MIC K. pneumonia (Klebsiella pneumonia; 10 h cultivation at 37° C.): 50 µg/mL | MIC E. cloacae (Enterobacter cloacae; 10 h cultivation at 37° C.): 25 µg/mL | MIC A. hydrophila (Aeromonas hydrophila; 10 h cultivation at 37° C.): 12.5 µg/mL | MIC C. diversus (Citrobacter diversus; 10 h cultivation at 37° C.): 25 µg/mL | MIC M. catarrhalis (Moraxella catarrhalis; 10 h cultivation at 37° C.): 50 µg/mL | MIC P. mirabilis (Proteus mirabilis; 10 h cultivation at 37° C.): 25 µg/mL | MIC P. vulgaris (Proteus vulgaris; 10 h cultivation at 37° C.): 12.5 µg/mL | MIC S. marcescens (Serratia marcescens; 10 h cultivation at 37° C.): 25 µg/mL

PRT14 (PPKPCDSQPCFHGGTCQDWALGGGFTCSCPAGRGGAVCE; listed as Homo sapiens)
MIC (E. coli DH5α): 25 µg/mL | MIC (μg/mL) E. coli BL21 (E. coli BL21; 96-well plate, 37° C., 10 h): 50 µg/mL | MIC (μg/mL) P. aeruginosa (Pseudomonas aeruginosa; Pseudomonas aeruginosa, 96-well plate, 37° C., 10 h): 25 µg/mL | MIC (μg/mL) K. pneumonia (Klebsiella pneumonia; Klebsiella pneumonia, 96-well plate, 37° C., 10 h): 12.5 µg/mL | MIC (μg/mL) E. cloacae (Enterobacter cloacae; Enterobacter cloacae, 96-well plate, 37° C., 10 h): 25 µg/mL | MIC (μg/mL) A. hydrophila (Aeromonas hydrophila; Aeromonas hydrophila, 96-well plate, 37° C., 10 h): 50 µg/mL | MIC (μg/mL) C. diversus (Citrobacter diversus; Citrobacter diversus, 96-well plate, 37° C., 10 h): 25 µg/mL | MIC (μg/mL) M. catarrhalis (Moraxella catarrhalis; Moraxella catarrhalis, 96-well plate, 37° C., 10 h): 12.5 µg/mL | MIC (μg/mL) P. mirabilis (Proteus mirabilis; Proteus mirabilis, 96-well plate, 37° C., 10 h): 25 µg/mL | MIC (μg/mL) P. vulgaris (Proteus vulgaris; Proteus vulgaris, 96-well plate, 37° C., 10 h): 50 µg/mL | MIC (μg/mL) S. marcescens (Serratia marcescens; Serratia marcescens, 96-well plate, 37° C., 10 h): 12.5 µg/mL

PRT197 (LGYDCTTDKCNDRGVCNNKKHCHCSASYLPPDCS; listed as Homo sapiens)
MIC (E. coli DH5α): 50 µg/mL | MIC (μg/mL) E. coli BL21 (E. coli BL21; 10 h cultivation at 37° C.): 12.5 µg/mL | MIC (μg/mL) P. aeruginosa (Pseudomonas aeruginosa; [1]): 50 µg/mL | MIC (μg/mL) K. pneumonia (Klebsiella pneumonia; [2]): 12.5 µg/mL | MIC (μg/mL) E. cloacae (Enterobacter cloacae; [3]): 50 µg/mL | MIC (μg/mL) A. hydrophila (Aeromonas hydrophila; [4]): 12.5 µg/mL | MIC (μg/mL) C. diversus (Citrobacter diversus; [5]): 12.5 µg/mL | MIC (μg/mL) M. catarrhalis (Moraxella catarrhalis; [6]): 12.5 µg/mL | MIC (μg/mL) P. mirabilis (Proteus mirabilis; [7]): 12.5 µg/mL | MIC (μg/mL) P. vulgaris (Proteus vulgaris; [8]): 12.5 µg/mL | MIC (μg/mL) S. marcescens (Serratia marcescens; [9]): 12.5 µg/mL

PRT764 (AQDKCALGTHGCQHICVNDRTGSHHCECYEGYTLNADKKTCS; listed as Homo sapiens)
MIC (E. coli DH5α): 12.5 µg/mL | MIC (μg/mL) E. coli BL21 (E. coli BL21; 10 h cultivation at 37° C.): 25 µg/mL | MIC (μg/mL) P. aeruginosa (Pseudomonas aeruginosa; [1]): 50 µg/mL | MIC (μg/mL) K. pneumonia (Klebsiella pneumonia; [2]): 100 µg/mL | MIC (μg/mL) E. cloacae (Enterobacter cloacae; [3]): 50 µg/mL | MIC (μg/mL) A. hydrophila (Aeromonas hydrophila; [4]): 12.5 µg/mL | MIC (μg/mL) C. diversus (Citrobacter diversus; [5]): 50 µg/mL | MIC (μg/mL) M. catarrhalis (Moraxella catarrhalis; [6]): 12.5 µg/mL | MIC (μg/mL) P. mirabilis (Proteus mirabilis; [7]): 25 µg/mL | MIC (μg/mL) P. vulgaris (Proteus vulgaris; [8]): 25 µg/mL | MIC (μg/mL) S. marcescens (Serratia marcescens; [9]): 50 µg/mL

PRT1112 (GAPVCAPSPCLHDGACRDLFDAFACACGPGWEGPRCE; listed as Homo sapiens)
MIC (E. coli DH5α): 50 µg/mL | MIC E. coli BL21 (E. coli BL21; 10 h cultivation at 37° C.): 25 µg/mL | MIC P. aeruginosa (Pseudomonas aeruginosa; 10 h cultivation at 37° C.): 12.5 µg/mL | MIC K. pneumonia (Klebsiella pneumonia; 10 h cultivation at 37° C.): 25 µg/mL | MIC E. cloacae (Enterobacter cloacae; 10 h cultivation at 37° C.): 50 µg/mL | MIC A. hydrophila (Aeromonas hydrophila; 10 h cultivation at 37° C.): 12.5 µg/mL | MIC C. diversus (Citrobacter diversus; 10 h cultivation at 37° C.): 25 µg/mL | MIC M. catarrhalis (Moraxella catarrhalis; 10 h cultivation at 37° C.): 12.5 µg/mL | MIC P. mirabilis (Proteus mirabilis; 10 h cultivation at 37° C.): 25 µg/mL | MIC P. vulgaris (Proteus vulgaris; 10 h cultivation at 37° C.): 12.5 µg/mL | MIC S. marcescens (Serratia marcescens; 10 h cultivation at 37° C.): 25 µg/mL
